This is an account of results in ChEMBL document CHEMBL5465560, “Selectivity Literature for EUbOPEN Chemogenomic Library” (2024).

Assay [1] deals with Transient receptor potential cation channel subfamily M member 6 (Homo sapiens) (UniProt Q9BX84). As to conditions: at 10 µM.
The target of assay [2] is T1, Non-receptor tyrosine-protein kinase TNK1 (Homo sapiens) (UniProt Q13470).
T1 sequence (whole entry): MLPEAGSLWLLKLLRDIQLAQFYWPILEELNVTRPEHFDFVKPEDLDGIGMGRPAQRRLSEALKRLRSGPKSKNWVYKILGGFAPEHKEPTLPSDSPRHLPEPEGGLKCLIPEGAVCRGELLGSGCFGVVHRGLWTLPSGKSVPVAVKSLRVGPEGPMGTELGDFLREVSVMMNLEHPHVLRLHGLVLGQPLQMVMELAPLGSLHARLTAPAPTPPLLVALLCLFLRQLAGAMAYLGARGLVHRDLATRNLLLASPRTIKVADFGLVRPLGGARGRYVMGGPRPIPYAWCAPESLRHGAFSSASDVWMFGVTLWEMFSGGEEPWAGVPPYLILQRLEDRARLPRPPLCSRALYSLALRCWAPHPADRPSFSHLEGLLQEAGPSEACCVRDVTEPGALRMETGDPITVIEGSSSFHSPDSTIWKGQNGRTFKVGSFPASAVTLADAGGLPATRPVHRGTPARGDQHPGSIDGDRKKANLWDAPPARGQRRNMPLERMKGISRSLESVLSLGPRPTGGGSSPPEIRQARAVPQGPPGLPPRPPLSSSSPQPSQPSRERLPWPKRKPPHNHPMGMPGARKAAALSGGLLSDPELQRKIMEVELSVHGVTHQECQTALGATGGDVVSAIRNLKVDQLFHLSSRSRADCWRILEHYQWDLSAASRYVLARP
Nature of the assay: Selectivity interaction (Kinase panel (Carna Biosciences)) EUB0001542aTs TNK1. As to conditions: at 1 µM.

The target of assay [3] is T2, Serine/threonine-protein kinase STK11 (Homo sapiens) (UniProt Q15831).
T2 sequence (whole entry): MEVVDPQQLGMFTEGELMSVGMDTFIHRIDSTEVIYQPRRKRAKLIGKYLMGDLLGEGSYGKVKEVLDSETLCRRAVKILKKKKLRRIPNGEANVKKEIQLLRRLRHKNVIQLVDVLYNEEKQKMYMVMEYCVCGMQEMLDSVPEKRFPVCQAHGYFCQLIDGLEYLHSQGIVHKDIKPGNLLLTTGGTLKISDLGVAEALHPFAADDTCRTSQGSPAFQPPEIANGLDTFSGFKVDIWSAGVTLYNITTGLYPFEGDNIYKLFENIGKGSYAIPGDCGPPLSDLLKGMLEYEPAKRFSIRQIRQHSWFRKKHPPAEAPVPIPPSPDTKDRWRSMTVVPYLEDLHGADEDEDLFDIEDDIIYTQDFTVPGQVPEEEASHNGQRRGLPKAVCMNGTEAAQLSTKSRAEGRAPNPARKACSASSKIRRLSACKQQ
The assay can be described thus: Selectivity interaction (KinomeScan (DiscoverX)) EUB0000666a STK11. Conditions: at 10 µM.

Assay [4] concerns the target T3, Inhibitor of nuclear factor kappa-B kinase subunit alpha (Homo sapiens) (UniProt O15111).
T3 sequence (whole entry): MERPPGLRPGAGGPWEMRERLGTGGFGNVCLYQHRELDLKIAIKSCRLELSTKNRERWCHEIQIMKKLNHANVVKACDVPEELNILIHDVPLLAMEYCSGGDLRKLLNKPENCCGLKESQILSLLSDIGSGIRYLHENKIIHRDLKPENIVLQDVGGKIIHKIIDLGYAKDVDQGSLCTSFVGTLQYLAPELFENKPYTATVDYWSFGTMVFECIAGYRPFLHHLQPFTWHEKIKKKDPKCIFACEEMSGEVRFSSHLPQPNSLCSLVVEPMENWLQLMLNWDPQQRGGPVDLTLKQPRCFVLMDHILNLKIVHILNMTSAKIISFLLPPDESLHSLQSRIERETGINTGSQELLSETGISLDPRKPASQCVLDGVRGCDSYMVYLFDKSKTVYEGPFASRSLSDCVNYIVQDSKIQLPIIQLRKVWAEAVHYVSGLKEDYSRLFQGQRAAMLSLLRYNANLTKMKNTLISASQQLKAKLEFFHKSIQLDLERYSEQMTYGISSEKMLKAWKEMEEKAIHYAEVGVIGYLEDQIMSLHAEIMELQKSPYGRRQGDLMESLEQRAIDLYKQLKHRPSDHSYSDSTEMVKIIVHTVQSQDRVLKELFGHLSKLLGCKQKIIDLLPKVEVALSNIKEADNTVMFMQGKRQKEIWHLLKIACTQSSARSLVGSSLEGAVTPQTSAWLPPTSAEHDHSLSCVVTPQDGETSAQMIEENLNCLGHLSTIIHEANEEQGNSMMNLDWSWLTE
Nature of the assay: Selectivity interaction (Adapta Assay) EUB0001632a CHUK. Conditions: at 10 µM.

Assay [5] concerns the target Casein kinase I isoform gamma-1 (Homo sapiens) (UniProt Q9HCP0). The assay can be described thus: Selectivity interaction (Kinase panel (Z-LYTE Assay)) EUB0001632a CSNK1G1. Conditions: at 10 µM.
Assay [6] deals with Ribosomal protein S6 kinase beta-1 (Homo sapiens, UniProt P23443). Nature of the assay: Selectivity interaction (KinomeScan (DiscoverX)) EUB0000607a RPS6KB1. As to conditions: at 10 µM.
Ribosomal protein S6 kinase beta-1, sequence (P23443 whole entry, looked up): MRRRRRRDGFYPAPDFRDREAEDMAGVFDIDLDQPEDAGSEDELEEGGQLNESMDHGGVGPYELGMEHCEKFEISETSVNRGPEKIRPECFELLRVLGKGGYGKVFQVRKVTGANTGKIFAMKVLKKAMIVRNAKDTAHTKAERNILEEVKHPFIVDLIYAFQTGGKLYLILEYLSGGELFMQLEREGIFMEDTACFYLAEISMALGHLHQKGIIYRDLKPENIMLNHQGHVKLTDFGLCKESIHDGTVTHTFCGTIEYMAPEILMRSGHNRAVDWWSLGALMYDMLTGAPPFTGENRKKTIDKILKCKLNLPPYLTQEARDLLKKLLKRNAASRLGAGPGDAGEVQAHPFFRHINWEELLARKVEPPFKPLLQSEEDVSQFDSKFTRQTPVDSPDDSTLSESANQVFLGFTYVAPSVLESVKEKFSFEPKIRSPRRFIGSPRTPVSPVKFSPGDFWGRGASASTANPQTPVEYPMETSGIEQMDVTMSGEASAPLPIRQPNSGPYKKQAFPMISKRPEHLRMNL
The target of assay [7] is Serine/threonine-protein kinase MARK1 (Homo sapiens) (UniProt Q9P0L2). Conditions: at 10 µM.
Serine/threonine-protein kinase MARK1 (Homo sapiens), sequence (Q9P0L2 whole entry, looked up): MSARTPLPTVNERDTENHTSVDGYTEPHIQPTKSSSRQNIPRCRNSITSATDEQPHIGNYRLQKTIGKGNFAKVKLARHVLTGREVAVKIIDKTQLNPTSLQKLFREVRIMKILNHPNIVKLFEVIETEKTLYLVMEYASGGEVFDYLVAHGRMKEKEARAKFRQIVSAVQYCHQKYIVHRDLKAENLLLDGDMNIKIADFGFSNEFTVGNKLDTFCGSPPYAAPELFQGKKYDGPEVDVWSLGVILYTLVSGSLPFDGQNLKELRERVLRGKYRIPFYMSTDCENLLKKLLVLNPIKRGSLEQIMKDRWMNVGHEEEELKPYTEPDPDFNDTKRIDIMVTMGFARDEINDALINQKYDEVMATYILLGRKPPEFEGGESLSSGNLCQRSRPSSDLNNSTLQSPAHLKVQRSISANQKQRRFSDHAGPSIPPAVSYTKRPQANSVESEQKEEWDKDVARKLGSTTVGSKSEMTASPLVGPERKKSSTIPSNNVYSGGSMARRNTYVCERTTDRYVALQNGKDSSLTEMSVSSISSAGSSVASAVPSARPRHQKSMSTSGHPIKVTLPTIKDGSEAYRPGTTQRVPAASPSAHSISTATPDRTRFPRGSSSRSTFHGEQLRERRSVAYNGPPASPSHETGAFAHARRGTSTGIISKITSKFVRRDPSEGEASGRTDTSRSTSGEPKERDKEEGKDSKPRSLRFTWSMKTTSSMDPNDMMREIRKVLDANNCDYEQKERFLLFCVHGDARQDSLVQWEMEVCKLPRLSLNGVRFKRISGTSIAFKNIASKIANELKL

Transient receptor potential cation channel subfamily M member 6 (Homo sapiens), sequence (Q9BX84 whole entry): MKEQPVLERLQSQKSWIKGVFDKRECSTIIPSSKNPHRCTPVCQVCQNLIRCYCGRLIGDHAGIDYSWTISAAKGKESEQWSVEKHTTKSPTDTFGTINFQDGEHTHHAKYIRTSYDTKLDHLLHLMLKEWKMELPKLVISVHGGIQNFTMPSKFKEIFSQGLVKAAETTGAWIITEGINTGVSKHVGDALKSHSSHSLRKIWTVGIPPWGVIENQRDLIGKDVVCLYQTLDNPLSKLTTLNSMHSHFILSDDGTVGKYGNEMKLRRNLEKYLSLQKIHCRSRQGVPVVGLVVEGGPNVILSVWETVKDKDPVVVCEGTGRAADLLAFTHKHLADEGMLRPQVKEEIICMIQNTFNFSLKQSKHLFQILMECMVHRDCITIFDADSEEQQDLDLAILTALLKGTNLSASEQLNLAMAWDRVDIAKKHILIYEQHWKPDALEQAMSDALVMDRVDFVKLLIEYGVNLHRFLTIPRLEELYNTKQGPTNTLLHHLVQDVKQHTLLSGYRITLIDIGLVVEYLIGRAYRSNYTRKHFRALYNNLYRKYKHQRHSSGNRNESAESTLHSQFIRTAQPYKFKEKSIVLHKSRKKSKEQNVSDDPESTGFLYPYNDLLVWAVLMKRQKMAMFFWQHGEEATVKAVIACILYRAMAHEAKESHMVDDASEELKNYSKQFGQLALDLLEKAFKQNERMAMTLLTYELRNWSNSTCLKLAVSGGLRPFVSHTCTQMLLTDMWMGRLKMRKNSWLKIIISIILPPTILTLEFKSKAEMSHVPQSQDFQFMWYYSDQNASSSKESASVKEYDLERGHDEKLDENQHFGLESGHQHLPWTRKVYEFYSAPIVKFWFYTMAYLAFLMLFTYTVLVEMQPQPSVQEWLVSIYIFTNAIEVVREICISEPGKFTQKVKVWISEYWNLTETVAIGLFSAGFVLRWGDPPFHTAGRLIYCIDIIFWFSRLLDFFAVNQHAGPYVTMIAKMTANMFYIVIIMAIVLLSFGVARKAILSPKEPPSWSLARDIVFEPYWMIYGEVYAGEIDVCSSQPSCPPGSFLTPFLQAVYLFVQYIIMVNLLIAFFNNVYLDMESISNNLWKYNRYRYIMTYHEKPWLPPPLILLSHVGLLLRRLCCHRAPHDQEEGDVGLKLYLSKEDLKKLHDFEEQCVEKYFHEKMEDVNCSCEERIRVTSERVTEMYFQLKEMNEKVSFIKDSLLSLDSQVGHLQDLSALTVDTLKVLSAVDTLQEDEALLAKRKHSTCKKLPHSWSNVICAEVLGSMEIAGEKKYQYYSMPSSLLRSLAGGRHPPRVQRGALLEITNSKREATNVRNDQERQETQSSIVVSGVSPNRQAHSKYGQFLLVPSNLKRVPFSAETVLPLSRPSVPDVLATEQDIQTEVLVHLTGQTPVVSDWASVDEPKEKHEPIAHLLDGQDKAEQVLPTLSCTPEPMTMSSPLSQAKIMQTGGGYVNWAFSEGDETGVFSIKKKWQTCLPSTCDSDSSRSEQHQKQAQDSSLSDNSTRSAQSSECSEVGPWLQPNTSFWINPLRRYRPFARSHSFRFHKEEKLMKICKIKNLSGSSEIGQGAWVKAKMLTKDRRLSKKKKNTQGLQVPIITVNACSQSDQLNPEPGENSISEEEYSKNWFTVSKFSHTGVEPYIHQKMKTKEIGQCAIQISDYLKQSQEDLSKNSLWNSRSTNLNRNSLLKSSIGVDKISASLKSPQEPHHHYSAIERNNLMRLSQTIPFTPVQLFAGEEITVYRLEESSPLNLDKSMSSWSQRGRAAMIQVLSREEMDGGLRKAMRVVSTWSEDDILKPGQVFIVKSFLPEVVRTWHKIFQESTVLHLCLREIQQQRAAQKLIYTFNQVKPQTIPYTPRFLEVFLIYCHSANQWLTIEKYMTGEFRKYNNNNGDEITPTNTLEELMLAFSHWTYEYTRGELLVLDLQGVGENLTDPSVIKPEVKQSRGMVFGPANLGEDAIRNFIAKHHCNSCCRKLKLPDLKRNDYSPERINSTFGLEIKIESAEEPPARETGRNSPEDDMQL
Casein kinase I isoform gamma-1 (Homo sapiens), sequence (Q9HCP0 whole entry, looked up, canonical isoform): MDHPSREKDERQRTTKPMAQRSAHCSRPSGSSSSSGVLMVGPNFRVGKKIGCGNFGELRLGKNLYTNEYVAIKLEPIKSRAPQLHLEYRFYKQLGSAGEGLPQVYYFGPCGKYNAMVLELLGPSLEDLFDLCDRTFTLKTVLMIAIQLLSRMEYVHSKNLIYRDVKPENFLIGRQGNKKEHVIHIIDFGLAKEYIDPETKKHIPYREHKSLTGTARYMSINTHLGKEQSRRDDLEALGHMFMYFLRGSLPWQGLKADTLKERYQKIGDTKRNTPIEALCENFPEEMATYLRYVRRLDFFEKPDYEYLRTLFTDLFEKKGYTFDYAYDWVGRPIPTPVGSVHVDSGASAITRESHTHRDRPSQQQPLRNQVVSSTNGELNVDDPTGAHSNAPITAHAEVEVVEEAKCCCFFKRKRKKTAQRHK

The compound `Cc1cc([C@@H](C)Nc2ccccc2C(=O)O)c2nc(N3CCOCC3)cc(=O)n2c1` [AZD-6482] displayed a % of control in assay [1] of 100%.

Turning to `Cn1cc(Nc2nccc(N3CC4CCC(C3)N4C(=O)[C@@H]3CC3(F)F)n2)cn1`, the % of inhibition in assay [2] stood at 64%.

Consider `O=C(NOC[C@H](O)CO)c1ccc(F)c(F)c1Nc1ccc(I)cc1F`, for which the % of control in assay [3] came to 83%.

In assay [4], `Cn1cc(-n2cnc3c(NCc4nc5cc(Cl)c(Cl)cc5[nH]4)nc(N4CCOCC4)nc32)cn1` gave a % of inhibition of 13.7%. The same compound showed a % of control in assay [5] of 12.7%.

Consider `CNC(=O)Nc1ccc(-c2nc(N3CC4CCC(C3)O4)c3cnn(C4CCC5(CC4)OCCO5)c3n2)cc1`, for which the % of control in assay [6] was 100%.

In turn, `COCC(=O)NC/C=C/c1ccc2ncnc(Nc3ccc(Oc4ccc(C)nc4)c(C)c3)c2c1` [CP-724714] gave a % of control in assay [7] of 100%.
